Laboratory results reported in ChEMBL document CHEMBL3286290, “In vitro screening of pentamidine analogs against bacterial and fungal strains” (Bioorg Med Chem Lett, 2014).

Assays:
[1] = system: Micrococcus luteus; assay: Antibacterial activity against Micrococcus luteus ATCC 9341 assessed as growth inhibition by M7-A6 method; format: functional
[2] = system: Micrococcus luteus; assay: Antibacterial activity against Micrococcus luteus ATCC 10240 assessed as growth inhibition by M7-A6 method; format: functional
[3] = system: Bacillus subtilis; assay: Antibacterial activity against Bacillus subtilis ATCC 6633 assessed as growth inhibition by M7-A6 method; format: functional
[4] = system: Bacillus cereus; assay: Antibacterial activity against Bacillus cereus ATCC 11778 assessed as growth inhibition by M7-A6 method; format: functional
[5] = system: Staphylococcus aureus; assay: Antibacterial activity against Staphylococcus aureus ATCC 6538 assessed as growth inhibition by M7-A6 method; format: functional
[6] = system: Staphylococcus aureus; assay: Antibacterial activity against Staphylococcus aureus ATCC 6538P assessed as growth inhibition by M7-A6 method; format: functional
[7] = system: Escherichia coli; assay: Antibacterial activity against Escherichia coli ATCC 8739 assessed as growth inhibition by M7-A6 method; format: functional
[8] = system: Pseudomonas aeruginosa; assay: Antibacterial activity against Pseudomonas aeruginosa ATCC 15442 assessed as growth inhibition by M7-A6 method; format: functional
[9] = system: Pseudomonas aeruginosa; assay: Antibacterial activity against Pseudomonas aeruginosa ATCC 9027 assessed as growth inhibition by M7-A6 method; format: functional
[10] = system: Candida albicans; assay: Antifungal activity against Candida albicans ATCC 10231 assessed as growth inhibition by M7-A6 method; format: functional
[11] = system: Candida albicans; assay: Antifungal activity against Candida albicans ATCC 2091 assessed as growth inhibition by M7-A6 method; format: functional
[12] = system: Candida parapsilosis; assay: Antifungal activity against Candida parapsilosis ATCC 22019 assessed as growth inhibition by M7-A6 method; format: functional; conditions: Lodderomyces parapsilosis
[13] = system: Aspergillus brasiliensis; assay: Antifungal activity against Aspergillus brasiliensis ATCC 16404 assessed as growth inhibition by M7-A6 method; format: functional
[14] = system: Saccharomyces cerevisiae; assay: Antifungal activity against Saccharomyces cerevisiae ATCC 9763 assessed as growth inhibition by M7-A6 method; format: functional
[15] = system: Staphylococcus aureus; assay: Antibacterial activity against erythromycin, amikacin, clindamycin, ciprofloxacin, methicillin-resistant Staphylococcus aureus 15K/11 assessed as growth inhibition by M7-A6 method; format: functional
[16] = system: Staphylococcus aureus; assay: Antibacterial activity against penicillin, erythromycin, amikacin, clindamycin, ciprofloxacin, methicillin-resistant Staphylococcus aureus 495/11 assessed as growth inhibition by M7-A6 method; format: functional
[17] = system: Staphylococcus aureus; assay: Antibacterial activity against penicillin, erythromycin, amikacin, clindamycin, ciprofloxacin, methicillin-resistant Staphylococcus aureus 572/12 assessed as growth inhibition by M7-A6 method; format: functional
[18] = system: Staphylococcus aureus; assay: Antibacterial activity against penicillin, erythromycin, clindamycin, ciprofloxacin, methicillin-resistant Staphylococcus aureus 19K/11 assessed as growth inhibition by M7-A6 method; format: functional
[19] = system: Staphylococcus aureus; assay: Antibacterial activity against penicillin, erythromycin, amikacin, clindamycin, ciprofloxacin, methicillin-resistant Staphylococcus aureus 573/12 assessed as growth inhibition by M7-A6 method; format: functional
[20] = system: A549; assay: Cytotoxicity against human A549 cells assessed as inhibition of cell viability after 48 hrs by MTT assay; format: cell-based; conditions: A549, 48 h
[21] = system: A549; assay: Cytotoxicity against human A549 cells assessed as inhibition of cell viability after 72 hrs by MTT assay; format: cell-based; conditions: A549, 72 h
[22] = system: HeLa; assay: Cytotoxicity against human HeLa cells assessed as inhibition of cell viability after 48 hrs by MTT assay; format: cell-based
[23] = system: HeLa; assay: Cytotoxicity against human HeLa cells assessed as inhibition of cell viability after 72 hrs by MTT assay; format: cell-based
[24] = Cytotoxicity against human A549 cells assessed as cell viability at 200 ug/ml after 48 hrs by MTT assay; format: cell-based; conditions: read-out: Activity
[25] = Cytotoxicity against human A549 cells assessed as cell viability at 100 ug/ml after 48 hrs by MTT assay; format: cell-based; conditions: read-out: Activity
[26] = Cytotoxicity against human A549 cells assessed as cell viability at 50 ug/ml after 48 hrs by MTT assay; format: cell-based; conditions: read-out: Activity
[27] = Cytotoxicity against human A549 cells assessed as cell viability at 10 ug/ml after 48 hrs by MTT assay; format: cell-based; conditions: read-out: Activity
[28] = Cytotoxicity against human A549 cells assessed as cell viability at 200 ug/ml after 72 hrs by MTT assay; format: cell-based; conditions: read-out: Activity
[29] = Cytotoxicity against human A549 cells assessed as cell viability at 100 ug/ml after 72 hrs by MTT assay; format: cell-based; conditions: read-out: Activity
[30] = Cytotoxicity against human A549 cells assessed as cell viability at 50 ug/ml after 72 hrs by MTT assay; format: cell-based; conditions: read-out: Activity
[31] = Cytotoxicity against human A549 cells assessed as cell viability at 10 ug/ml after 72 hrs by MTT assay; format: cell-based; conditions: read-out: Activity
[32] = Cytotoxicity against human HeLa cells assessed as cell viability at 200 ug/ml after 48 hrs by MTT assay; format: cell-based; conditions: read-out: Activity
[33] = Cytotoxicity against human HeLa cells assessed as cell viability at 100 ug/ml after 48 hrs by MTT assay; format: cell-based; conditions: read-out: Activity
[34] = Cytotoxicity against human HeLa cells assessed as cell viability at 50 ug/ml after 48 hrs by MTT assay; format: cell-based; conditions: read-out: Activity
[35] = Cytotoxicity against human HeLa cells assessed as cell viability at 10 ug/ml after 48 hrs by MTT assay; format: cell-based; conditions: read-out: Activity
[36] = Cytotoxicity against human HeLa cells assessed as cell viability at 200 ug/ml after 72 hrs by MTT assay; format: cell-based; conditions: read-out: Activity
[37] = Cytotoxicity against human HeLa cells assessed as cell viability at 100 ug/ml after 72 hrs by MTT assay; format: cell-based; conditions: read-out: Activity
[38] = Cytotoxicity against human HeLa cells assessed as cell viability at 50 ug/ml after 72 hrs by MTT assay; format: cell-based; conditions: read-out: Activity
[39] = Cytotoxicity against human HeLa cells assessed as cell viability at 10 ug/ml after 72 hrs by MTT assay; format: cell-based; conditions: read-out: Activity

SMILES	MIC [1] [µM]	MIC [2] [µM]	MIC [3] [µM]	MIC [4] [µM]	MIC [5] [µM]	MIC [6] [µM]	MIC [7] [µM]	MIC [8] [µM]	MIC [9] [µM]	MIC [10] [µM]	MIC [11] [µM]	MIC [12] [µM]	MIC [13] [µM]	MIC [14] [µM]	MIC [15] [µM]	MIC [16] [µM]	MIC [17] [µM]	MIC [18] [µM]	MIC [19] [µM]	IC50 [20] [µg/mL]	also measured
CCCCNC(=N)c1ccc(OCCSCCOc2ccc(C(=N)NCCCC)cc2)cc1.Cl	2.6	3.6	14	450	14	27	110	> 1810	> 1810	3.6	3.6	3.6	14	27	230	230	230	110	14	> 100	IC50 [21]: ≥ 50 µg/mL; IC50 [22]: > 100 µg/mL; IC50 [23]: > 100 µg/mL; viability at 48 h, 200 ug/ml [24]: 59.1%; viability at 48 h, 100 ug/ml [25]: 62.3%; viability at 48 h, 50 ug/ml [26]: 68.8%; viability at 48 h, 10 ug/ml [27]: 89.3%; viability at 72 h, 200 ug/ml [28]: 42.2%; viability at 72 h, 100 ug/ml [29]: 48.5%; viability at 72 h, 50 ug/ml [30]: 50.5%; viability at 72 h, 10 ug/ml [31]: 67.6%; viability at 48 h, 200 ug/ml [32]: 25.8%; viability at 48 h, 100 ug/ml [33]: 63.7%; viability at 48 h, 50 ug/ml [34]: 83.4%; viability at 48 h, 10 ug/ml [35]: 91.8%; viability at 72 h, 200 ug/ml [36]: 18.5%; viability at 72 h, 100 ug/ml [37]: 57.2%; viability at 72 h, 50 ug/ml [38]: 88.3%; viability at 72 h, 10 ug/ml [39]: 99%
Cl.N=C(N)c1ccc(SCCOCCSc2ccc(C(=N)N)cc2)cc1	4.3	4.3	130	540	130	130	540	2150	1070	1070	1070	270	2150	540	1070	1070	270	130	130	50	IC50 [21]: 10 µg/mL; IC50 [22]: < 50 µg/mL; IC50 [23]: < 50 µg/mL; viability at 48 h, 200 ug/ml [24]: 9.5%; viability at 48 h, 100 ug/ml [25]: 19.8%; viability at 48 h, 50 ug/ml [26]: 48.1%; viability at 48 h, 10 ug/ml [27]: 77.1%; viability at 72 h, 200 ug/ml [28]: 7.9%; viability at 72 h, 100 ug/ml [29]: 8.2%; viability at 72 h, 50 ug/ml [30]: 16.2%; viability at 72 h, 10 ug/ml [31]: 56.4%; viability at 48 h, 200 ug/ml [32]: 10.1%; viability at 48 h, 100 ug/ml [33]: 10.3%; viability at 48 h, 50 ug/ml [34]: 10.4%; viability at 48 h, 10 ug/ml [35]: 76.2%; viability at 72 h, 200 ug/ml [36]: 7.4%; viability at 72 h, 100 ug/ml [37]: 7.4%; viability at 72 h, 50 ug/ml [38]: 7.8%; viability at 72 h, 10 ug/ml [39]: 65.3%
Cl.N=C(NC1CCCCC1)c1ccc(OCCSCCOc2ccc(C(=N)NC3CCCCC3)cc2)cc1	3.2	0.81	12	100	3.2	3.2	100	> 1630	> 1630	3.2	3.2	3.2	3.2	24	100	200	100	12	12	> 100	IC50 [21]: ≥ 50 µg/mL; IC50 [22]: > 100 µg/mL; IC50 [23]: > 100 µg/mL; viability at 48 h, 200 ug/ml [24]: 61.4%; viability at 48 h, 100 ug/ml [25]: 63.9%; viability at 48 h, 50 ug/ml [26]: 74.9%; viability at 48 h, 10 ug/ml [27]: 84.6%; viability at 72 h, 200 ug/ml [28]: 54.3%; viability at 72 h, 100 ug/ml [29]: 59.7%; viability at 72 h, 50 ug/ml [30]: 59.2%; viability at 72 h, 10 ug/ml [31]: 69.6%; viability at 48 h, 200 ug/ml [32]: 15.3%; viability at 48 h, 100 ug/ml [33]: 70.8%; viability at 48 h, 50 ug/ml [34]: 95.8%; viability at 48 h, 10 ug/ml [35]: 95.3%; viability at 72 h, 200 ug/ml [36]: 12.3%; viability at 72 h, 100 ug/ml [37]: 66.9%; viability at 72 h, 50 ug/ml [38]: 96.6%; viability at 72 h, 10 ug/ml [39]: 94.6%
Cl.c1cc(C2=NCCN2)ccc1OCCSCCOc1ccc(C2=NCCN2)cc1	9.8	9.8	240	980	980	980	980	> 1960	> 1960	240	240	29	> 1960	980	980	1960	1960	1960	1960	> 100	IC50 [21]: ≥ 50 µg/mL; IC50 [22]: > 100 µg/mL; IC50 [23]: > 100 µg/mL; viability at 48 h, 200 ug/ml [24]: 16.5%; viability at 48 h, 100 ug/ml [25]: 52.6%; viability at 48 h, 50 ug/ml [26]: 63.6%; viability at 48 h, 10 ug/ml [27]: 80.3%; viability at 72 h, 200 ug/ml [28]: 10.2%; viability at 72 h, 100 ug/ml [29]: 34.4%; viability at 72 h, 50 ug/ml [30]: 49%; viability at 72 h, 10 ug/ml [31]: 59.1%; viability at 48 h, 200 ug/ml [32]: 16.5%; viability at 48 h, 100 ug/ml [33]: 53.5%; viability at 48 h, 50 ug/ml [34]: 68.5%; viability at 48 h, 10 ug/ml [35]: 76.9%; viability at 72 h, 200 ug/ml [36]: 10.7%; viability at 72 h, 100 ug/ml [37]: 41.8%; viability at 72 h, 50 ug/ml [38]: 68.1%; viability at 72 h, 10 ug/ml [39]: 67.7%
